We go through eleven compounds from PMC7918823, “Novel Potent and Selective DPP-4 Inhibitors: Design, Synthesis and Molecular Docking Study of Dihydropyrimidine Phthalimide Hybrids” (Pharmaceuticals, 2021).

By IC50 is commonly meant the concentration that inhibits the measured activity by half. One may read the viability as a per cent measure of how many cells are alive, often set against a control.

The target in one series is T1, recombinant human DPP-4 (Homo sapiens, UniProt P27487).
T1 construct: purchased Sigma Aldrich
T1 sequence (P27487 whole entry): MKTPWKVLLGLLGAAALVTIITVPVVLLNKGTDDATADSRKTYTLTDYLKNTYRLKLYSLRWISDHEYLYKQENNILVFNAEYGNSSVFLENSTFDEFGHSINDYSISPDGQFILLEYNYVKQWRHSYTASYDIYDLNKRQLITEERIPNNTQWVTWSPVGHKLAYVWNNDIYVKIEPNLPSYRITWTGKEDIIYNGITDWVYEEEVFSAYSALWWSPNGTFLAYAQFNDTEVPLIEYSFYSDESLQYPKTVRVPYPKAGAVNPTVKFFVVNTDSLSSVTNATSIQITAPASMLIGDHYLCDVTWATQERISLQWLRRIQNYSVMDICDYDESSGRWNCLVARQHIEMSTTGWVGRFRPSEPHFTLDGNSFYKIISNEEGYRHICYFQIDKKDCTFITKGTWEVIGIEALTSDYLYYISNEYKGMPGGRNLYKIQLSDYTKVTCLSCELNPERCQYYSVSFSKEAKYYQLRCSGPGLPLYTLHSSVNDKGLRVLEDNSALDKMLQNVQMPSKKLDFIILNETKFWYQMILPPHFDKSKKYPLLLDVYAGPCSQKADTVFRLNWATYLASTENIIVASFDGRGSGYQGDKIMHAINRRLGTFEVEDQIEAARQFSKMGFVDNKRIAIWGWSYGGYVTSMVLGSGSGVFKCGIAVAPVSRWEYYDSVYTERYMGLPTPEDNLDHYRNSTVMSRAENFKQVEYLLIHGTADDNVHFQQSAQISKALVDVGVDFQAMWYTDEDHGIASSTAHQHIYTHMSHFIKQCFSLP
The series can be described thus: In vitro DPP-4 inhibition assay (continuous fluorometric, Gly-Pro-AMC). The conditions noted are these: for Fold DPP-4 inhibitory activity relative to alogliptin: from IC50 values, versus alogliptin; for IC50: recombinant human DPP-4, mean ± SE of four replicates. It is filed as biochemical. As for the experimental part: (§1) DPP-4 inhibition was assessed, as previously described, based on a continuous fluorometric assay method in which the substrate Gly-Pro-AMC (Gly-Pro-7-amido-4-methylcoumarin hydrobromide) was split by DPP-4 to release fluorescent aminomethyl coumarin (AMC). The liberated AMC was continuously monitored using an excitation wavelength of 360 nm and an emission wavelength of 460 nm using an EnVision microplate reader (PerkinElmer, Waltham, MA, USA). The reaction mixture consisted of different concentrations of the synthesized hybrids 10a–j, 20 µU/µL of recombinant human DPP-4 (Sigma Aldrich, St. Louis, MO, USA), 10 µM Gly-Pro-AMC (Sigma Aldrich, St. Louis, MO, USA) and assay buffer (150 mM NaCl, 25 mM 4-(2-hydroxyethyl)-1-piperazineethanesulfonic acid (HEPES), 0.12 mg/ml bovine serum albumin (BSA)) and pH of 7.5. The assay was carried out in quadruplicate. IC50 was calculated using GraphPad Prism 8 software (San Diego, CA, USA). Similar to the DPP-4 assay, DPP-8 and DPP-9 inhibition assay was performed and the pH of the assay buffer was 8.

Another series deals with DPP-8 (Homo sapiens, UniProt Q6V1X1). The experiment in a line: In vitro DPP-8 inhibition assay. Type of series: biochemical. The settings on record: assay buffer pH 8. The protocol: as §1
Sequence of DPP-8 (Q6V1X1 whole entry): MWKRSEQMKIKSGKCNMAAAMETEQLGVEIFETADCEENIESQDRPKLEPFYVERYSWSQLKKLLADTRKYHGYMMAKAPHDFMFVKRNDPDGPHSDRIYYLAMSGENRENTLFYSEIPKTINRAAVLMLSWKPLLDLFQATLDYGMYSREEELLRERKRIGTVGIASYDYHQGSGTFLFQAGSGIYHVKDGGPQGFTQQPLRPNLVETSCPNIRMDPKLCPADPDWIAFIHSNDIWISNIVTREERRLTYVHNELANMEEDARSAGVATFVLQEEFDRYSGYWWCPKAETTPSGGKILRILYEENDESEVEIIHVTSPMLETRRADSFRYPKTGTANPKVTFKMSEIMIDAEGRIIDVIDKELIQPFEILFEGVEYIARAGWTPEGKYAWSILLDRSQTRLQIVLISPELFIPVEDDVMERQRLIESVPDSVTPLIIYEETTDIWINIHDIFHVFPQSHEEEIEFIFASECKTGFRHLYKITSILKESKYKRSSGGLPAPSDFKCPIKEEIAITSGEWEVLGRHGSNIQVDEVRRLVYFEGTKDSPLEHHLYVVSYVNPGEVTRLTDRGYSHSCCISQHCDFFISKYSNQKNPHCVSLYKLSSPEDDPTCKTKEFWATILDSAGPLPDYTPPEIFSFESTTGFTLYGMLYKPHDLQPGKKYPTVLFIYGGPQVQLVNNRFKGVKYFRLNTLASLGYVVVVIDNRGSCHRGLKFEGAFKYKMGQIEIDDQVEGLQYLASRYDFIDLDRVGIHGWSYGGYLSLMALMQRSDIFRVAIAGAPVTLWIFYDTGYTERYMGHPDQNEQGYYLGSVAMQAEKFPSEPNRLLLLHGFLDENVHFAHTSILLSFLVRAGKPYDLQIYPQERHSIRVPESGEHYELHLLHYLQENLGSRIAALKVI
A further series deals with DPP-9 (Homo sapiens, UniProt Q86TI2). The experiment in a line: In vitro DPP-9 inhibition assay. It is filed as biochemical. The settings on record: assay buffer pH 8. The protocol:
as §1

In series [1] the test system is HFD-induced type 2 diabetic rats. The series can be described thus: Oral glucose tolerance test after chronic treatment in HFD-induced type 2 diabetic rats. Type of series: in vivo, SD rats. The settings on record: for Glucose tolerance (AUC of OGTT versus non-treated diabetic group): 10 mg/kg/day oral, in absence of MET; for Reduction of AUC of OGTT by MET addition: hybrid 10 mg/kg/day oral plus MET 150 mg/kg/day. The source says:
After acclimatization period, rats were randomly divided into 25 groups, each of seven rats. The first group was normal control group which maintained on normal rat chow for the entire experiment period (16 weeks). The second group served as diabetic control group in which T2DM was induced by HFD that consisted of casein (30%), raw beef fat (Suet, 40%), wheat flour (7%), glucose (10%), salt mixture (6%), vitamin mixture (3%), and bran (4%), for 16 weeks. […] At the end of treatment regimen that lasted for four weeks; using our synthesized hybrids 10a–j with and without MET, rats were fasted overnight (12 h) with free access to water. Oral glucose tolerance test (OGTT) was performed as previously described. […] Roche Diagnostics, Rotkreuz, Switzerland).

Series [2] is described as follows: Antioxidant activity (DPPH method). The settings on record: 100 µM compound, 100 µM DPPH, 20 min, mean ± SE of four replicates. The protocol:
DPPH (1,1-diphenyl-2-picrylhydrazyl) free radical is stable at rt and has a purple colour with a maximum absorption at 517 nm. This free radical is reduced by antioxidant molecules into 1,1-diphenyl-2-picrylhydrazine with resultant discolouration of free radical; this discolouration is stoichiometric with regard to the captured electrons. Accordingly, the fluctuation in the absorbance is an indicator for the antioxidant activity. Our synthesized hybrids 10a–j (100 µM) were mixed with DPPH (100 µM) and left for 20 min at rt, the absorbance was measured at 517 nm.
A general note: The DPPH test is a chemical assay of radical scavenging.

Another series has as its target T2, blood DPP-4 activity (Rattus norvegicus, UniProt P14740).
T2 construct: from tissue; host or cells: plasma of male SD rats
The series can be described thus: In vivo DPP-4 inhibition assay (blood DPP-4 activity). The settings on record: SD rats, single oral dose 10 mg/kg. As for the experimental part: The assay was performed using male SD rats (n = 3 per group), as previously described. The synthesized hybrids 10a–j were suspended in […] cellulose (CMC) and administrated orally at a single dose of 10 mg/kg.
Blood samples were collected at time points 0, 6, 12, 24, 36 and 48 h. Plasma samples were extracted and kept at −20 °C until analysis time. Similar to the in vitro DPP-4 assay principle, plasma samples were mixed with equal volumes of Gly-Pro-AMC in assay buffer (100 mM HEPES, 0.1 mg/ml BSA) and pH of 7.5. The liberated AMC was continuously monitored using an excitation wavelength of 360 nm and an emission wavelength of 460 nm using EnVision microplate reader (PerkinElmer, Waltham, MA, USA). The data were expressed as% blood DPP-4 activity.

A short description of series [3]: Cytotoxicity test (MTT assay). Type of series: cell-based. The conditions noted are these: human, normal hepatic LO2 cells, read-out: cell viability. As for the experimental part:
We assessed any possible cytotoxic effect of our synthesized hybrids 10a–j on hepatic LO2 cells using MTT assay. The cells, in DMEM (Gibco, Invitrogen), were seeded in 96 well plates at density of 1 × 10^4/well. The synthesized compounds were added to the cells and incubated for 48 h at 37 °C and 5% CO2. Then, MTT reagent was added and the cells were re-incubated for further 4 h. After discarding the supernatants, the formed formazan crystals were dissolved in DMSO. The intensity of color was assessed using microplate reader (Bio-Rad Laboratories, Hercules, CA, USA) at 490 nm wavelength.
In general terms: Formazan colour is commonly taken as a measure of viable cells.

[4] abbreviates: combined with MET 150 mg/kg/day oral, four weeks (hybrid 10 mg/kg/day, alogliptin 20 mg/kg/day).

Bounds are passed on as bounds.

T2 sequence (P14740 37-767 limits assumed): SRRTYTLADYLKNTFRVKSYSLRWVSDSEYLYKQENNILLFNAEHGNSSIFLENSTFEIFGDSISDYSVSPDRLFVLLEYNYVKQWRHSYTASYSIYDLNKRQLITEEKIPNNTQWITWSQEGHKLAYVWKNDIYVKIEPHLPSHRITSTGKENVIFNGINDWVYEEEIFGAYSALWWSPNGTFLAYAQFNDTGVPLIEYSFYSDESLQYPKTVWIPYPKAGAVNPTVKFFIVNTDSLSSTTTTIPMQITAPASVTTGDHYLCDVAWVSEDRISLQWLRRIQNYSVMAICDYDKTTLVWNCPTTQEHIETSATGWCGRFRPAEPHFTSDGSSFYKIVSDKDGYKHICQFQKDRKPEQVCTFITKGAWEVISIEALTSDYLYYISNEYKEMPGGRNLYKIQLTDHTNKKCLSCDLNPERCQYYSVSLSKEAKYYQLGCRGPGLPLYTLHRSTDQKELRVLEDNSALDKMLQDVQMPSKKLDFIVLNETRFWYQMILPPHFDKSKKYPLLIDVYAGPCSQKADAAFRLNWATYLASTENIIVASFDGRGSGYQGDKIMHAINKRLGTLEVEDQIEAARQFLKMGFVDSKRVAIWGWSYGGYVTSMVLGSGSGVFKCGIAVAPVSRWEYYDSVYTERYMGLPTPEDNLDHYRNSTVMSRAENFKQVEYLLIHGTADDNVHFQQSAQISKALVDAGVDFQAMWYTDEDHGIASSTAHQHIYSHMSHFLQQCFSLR
Sequence of DPP-9 (Q86TI2 whole entry): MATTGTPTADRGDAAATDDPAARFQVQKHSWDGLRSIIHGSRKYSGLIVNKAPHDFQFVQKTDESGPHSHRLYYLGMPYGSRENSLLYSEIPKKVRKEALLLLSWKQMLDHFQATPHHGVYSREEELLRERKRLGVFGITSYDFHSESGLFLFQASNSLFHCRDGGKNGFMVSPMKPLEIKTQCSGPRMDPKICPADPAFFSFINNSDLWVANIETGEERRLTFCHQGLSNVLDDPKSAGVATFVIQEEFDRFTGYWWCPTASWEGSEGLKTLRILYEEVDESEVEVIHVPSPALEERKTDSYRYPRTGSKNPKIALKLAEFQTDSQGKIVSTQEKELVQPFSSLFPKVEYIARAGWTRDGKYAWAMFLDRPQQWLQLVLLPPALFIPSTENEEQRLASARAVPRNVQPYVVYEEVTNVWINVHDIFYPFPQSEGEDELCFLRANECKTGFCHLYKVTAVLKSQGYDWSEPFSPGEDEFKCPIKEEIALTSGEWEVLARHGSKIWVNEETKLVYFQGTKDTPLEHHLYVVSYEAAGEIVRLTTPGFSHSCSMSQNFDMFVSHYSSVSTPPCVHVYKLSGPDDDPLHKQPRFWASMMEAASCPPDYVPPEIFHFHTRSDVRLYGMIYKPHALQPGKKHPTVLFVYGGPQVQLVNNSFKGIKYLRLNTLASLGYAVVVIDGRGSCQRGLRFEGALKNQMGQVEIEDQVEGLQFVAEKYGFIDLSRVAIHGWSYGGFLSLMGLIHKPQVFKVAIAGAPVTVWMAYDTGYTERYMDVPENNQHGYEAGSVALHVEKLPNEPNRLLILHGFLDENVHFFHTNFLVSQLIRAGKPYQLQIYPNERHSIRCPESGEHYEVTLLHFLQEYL

As for `CN(C)c1ccc(C2C=C(c3ccc(Br)cc3)N=C(SC(=O)c3ccccc3CN3C(=O)c4ccccc4C3=O)N2)cc1` (stereo not drawn) [Compound 10e, S-(4-(4-Bromophenyl)-6-(4-(dimethylamino)phenyl)-1,6-dihydropyrimidin-2-yl) 2-((1,3-dioxoisoindolin-2-yl)methyl)benzothioate], at recombinant human DPP-4, the “Fold DPP-4 inhibitory activity relative to alogliptin” value amounted to 4 fold and the IC50 was determined as 0.00142 ± 0.00011 µM. The IC50 on DPP-8 is > 100 µM. For the same compound, the IC50 at DPP-9 is > 100 µM. Also, in series [1] (four weeks), the “Glucose tolerance (AUC of OGTT versus non-treated diabetic group)” value is reported as “significantly improved glucose tolerance above alogliptin” and the “Reduction of AUC of OGTT by MET addition” value worked out at 22.82%. In addition, the “% DPPH Scavenging” value in series [2] is recorded as 87.21 ± 2.58%.
In the case of `Cc1ccc(C2=CC(c3ccc(Cl)cc3)NC(SC(=O)c3ccccc3CN3C(=O)c4ccccc4C3=O)=N2)cc1` (stereo not drawn) [Compound 10d, S-(6-(4-Chlorophenyl)-4-(p-tolyl)-1,6-dihydropyrimidin-2-yl)2-((1,3-dioxoisoindolin-2-yl)methyl)benzothioate], the “Fold DPP-4 inhibitory activity relative to alogliptin” value on recombinant human DPP-4 was 2.6 fold. The figures for the IC50 on recombinant human DPP-4, on DPP-8 and against DPP-9 were 0.00219 ± 0.00014 µM, > 100 µM and > 100 µM, respectively. The “% DPPH Scavenging” value in series [2] stood at 80.16 ± 1.38%.
`COc1ccc(C2C=C(c3ccc(Cl)cc3)N=C(SC(=O)c3ccccc3CN3C(=O)c4ccccc4C3=O)N2)cc1` (stereo not drawn) [Compound 10b, S-(4-(4-Chlorophenyl)-6-(4-methoxyphenyl)-1,6-dihydropyrimidin-2-yl)2-((1,3-dioxoisoindolin-2-yl)methyl)benzothioate]: the “Fold DPP-4 inhibitory activity relative to alogliptin” value on recombinant human DPP-4 is 1.5 fold. In addition, the figures for the IC50 at recombinant human DPP-4, against DPP-8 and against DPP-9 were 0.00378 ± 0.00023 µM, > 100 µM and > 100 µM, respectively. The “% DPPH Scavenging” value in series [2] was determined as 74.28 ± 1.69%.
Turning to “S-(4-(4-Chlorophenyl)-6-(4-nitrophenyl)-1,6-dihydropyrimidin-2-yl)2-((1,3-dioxoisoindolin-2-yl)methyl)benzothioate [Compound 10g]”, on recombinant human DPP-4, the “Fold DPP-4 inhibitory activity relative to alogliptin” value amounted to 11.2 fold. In addition, the values for the IC50 at recombinant human DPP-4, against DPP-8 and on DPP-9 were 0.00051 ± 3e-05 µM, > 100 µM and > 100 µM, respectively. Besides, the DPP-4 blood activity at blood DPP-4 activity (12 h) is 18.45%; at blood DPP-4 activity (24 h), 47%; on blood DPP-4 activity (48 h), 73.3%. Moreover, the “Glucose tolerance (AUC of OGTT versus non-treated diabetic group)” value in series [1] (four weeks) was “significantly improved glucose tolerance above alogliptin”. The “AUC of OGTT” value in series [1] (setting [4]) was 13787 ± 201 mg·min/dL. For the same compound, the “Reduction of AUC of OGTT by MET addition” value in series [1] (four weeks) stood at 22.93%. For the same compound, the “% DPPH Scavenging” value in series [2] was determined as 49.47 ± 1.08%.
For `Cn1c(=O)cc(N2CCC[C@@H](N)C2)n(Cc2ccccc2C#N)c1=O` [Alogliptin, reference compound], the “AUC of OGTT” value in series [1] (setting [4]) was found to be 15451 ± 110 mg·min/dL; in series [1] (without MET, alogliptin 20 mg/kg/day oral, four weeks) it was 20835 ± 146 mg·min/dL.
In the case of `O=C(SC1=NC(c2ccc(Cl)cc2)=CC(c2ccco2)N1)c1ccccc1CN1C(=O)c2ccccc2C1=O` (stereo not drawn) [Compound 10i, S-(4-(4-Chlorophenyl)-6-(furan-2-yl)-1,6-dihydropyrimidin-2-yl)2-((1,3-dioxoisoindolin-2-yl)methyl)benzothioate], at recombinant human DPP-4, the “Fold DPP-4 inhibitory activity relative to alogliptin” value was 8.6 fold. The IC50 was 0.00066 ± 4e-05 µM at recombinant human DPP-4, > 100 µM at DPP-8 and > 100 µM against DPP-9. Besides, the viability at 48 h, 10 µM in series [3] (10 µM) worked out at 74.6%. The values for the DPP-4 blood activity on blood DPP-4 activity (12 h), on blood DPP-4 activity (24 h) and on blood DPP-4 activity (48 h) were 18.8%, 49.9% and 76%, respectively. For the same compound, in series [1] (four weeks), the “Glucose tolerance (AUC of OGTT versus non-treated diabetic group)” value was “significantly improved glucose tolerance above alogliptin”. Further, in series [1] (four weeks), the “Reduction of AUC of OGTT by MET addition” value was 21.7%. In addition, the “% DPPH Scavenging” value in series [2] amounted to 69.11 ± 1.44%.
Regarding `O=C(SC1=NC(c2ccccc2)=CC(c2ccccc2)N1)c1ccccc1CN1C(=O)c2ccccc2C1=O` (stereo not drawn) [Compound 10a, S-(4,6-Diphenyl-1,6-dihydropyrimidin-2-yl)2-((1,3-dioxoisoindolin-2-yl)methyl)benzothioate], the IC50 at recombinant human DPP-4 is 0.0197 ± 0.00127 µM; on DPP-8 it was > 100 µM; at DPP-9, > 100 µM. Also, the “% DPPH Scavenging” value in series [2] was 73.85 ± 2.46%.
As for `Nc1ccc(C2=CC(c3cccc4ccccc34)NC(SC(=O)c3ccccc3CN3C(=O)c4ccccc4C3=O)=N2)cc1` (stereo not drawn) [Compound 10j, S-(4-(4-Aminophenyl)-6-(naphthalen-1-yl)-1,6-dihydropyrimidin-2-yl)2-((1,3-dioxoisoindolin-2-yl)methyl)benzothioate], the IC50 is 0.00735 ± 0.00036 µM at recombinant human DPP-4, > 100 µM on DPP-8 and > 100 µM on DPP-9. In addition, the “% DPPH Scavenging” value in series [2] came out at 93.52 ± 1.65%.
For `Nc1ccc(C2=CC(c3ccc(Cl)cc3)NC(SC(=O)c3ccccc3CN3C(=O)c4ccccc4C3=O)=N2)cc1` (stereo not drawn) [Compound 10h, S-(4-(4-Aminophenyl)-6-(4-chlorophenyl)-1,6-dihydropyrimidin-2-yl)2-((1,3-dioxoisoindolin-2-yl)methyl)benzothioate], the IC50 was 0.0104 ± 0.00054 µM on recombinant human DPP-4, > 100 µM on DPP-8 and > 100 µM at DPP-9. Further, in series [3], the viability at 48 h, 50 µM was determined as 77.5%. Moreover, the “% DPPH Scavenging” value in series [2] is recorded as 85.74 ± 2.76%.
As for `O=C(SC1=NC(c2ccc(Cl)cc2)=CC(c2ccccc2)N1)c1ccccc1CN1C(=O)c2ccccc2C1=O` (stereo not drawn) [Compound 10f, S-(4-(4-Chlorophenyl)-6-phenyl-1,6-dihydropyrimidin-2-yl)2-((1,3-dioxoisoindolin-2-yl)methyl)benzothioate], the IC50 on recombinant human DPP-4 is 0.0315 ± 0.00241 µM; on DPP-8 it was > 100 µM; against DPP-9, > 100 µM. Further, in series [2], the “% DPPH Scavenging” value is reported as 57.63 ± 2.14%.
On to `O=C(SC1=NC(c2ccc(Cl)cc2)=CC(c2ccc(Cl)cc2)N1)c1ccccc1CN1C(=O)c2ccccc2C1=O` (stereo not drawn) [Compound 10c, S-(4,6-Bis(4-chlorophenyl)-1,6-dihydropyrimidin-2-yl)2-((1,3-dioxoisoindolin-2-yl)methyl)benzothioate], for which the IC50 at recombinant human DPP-4 is 0.0147 ± 0.00082 µM; on DPP-8, > 100 µM; against DPP-9, > 100 µM. Moreover, the viability at 48 h, 30 µM in series [3] (30 µM) was 72.6%. Moreover, in series [3], the viability at 48 h, 50 µM came to 72.5%. Moreover, the “% DPPH Scavenging” value in series [2] worked out at 52.39 ± 0.93%.
